Results reported in ChEMBL document CHEMBL1909046, “DrugMatrix in vitro pharmacology data”.

Experiments:
[1] = DRUGMATRIX: Potassium Channel [KATP] radioligand binding (ligand: [3H] Glyburide); type: cell membranes, Membrane; conditions: hit-t15; Not Active = under 50% inhibition at 10 µM
[2] = biological target: T1, Muscarinic acetylcholine receptor M2 (Homo sapiens, UniProt P08172); type: cell membranes, CHO-K1, Membrane; conditions: cho-k1; further: in other assays of this panel Not Active means under 50% inhibition at 10 µM
T1 sequence (P08172 whole entry): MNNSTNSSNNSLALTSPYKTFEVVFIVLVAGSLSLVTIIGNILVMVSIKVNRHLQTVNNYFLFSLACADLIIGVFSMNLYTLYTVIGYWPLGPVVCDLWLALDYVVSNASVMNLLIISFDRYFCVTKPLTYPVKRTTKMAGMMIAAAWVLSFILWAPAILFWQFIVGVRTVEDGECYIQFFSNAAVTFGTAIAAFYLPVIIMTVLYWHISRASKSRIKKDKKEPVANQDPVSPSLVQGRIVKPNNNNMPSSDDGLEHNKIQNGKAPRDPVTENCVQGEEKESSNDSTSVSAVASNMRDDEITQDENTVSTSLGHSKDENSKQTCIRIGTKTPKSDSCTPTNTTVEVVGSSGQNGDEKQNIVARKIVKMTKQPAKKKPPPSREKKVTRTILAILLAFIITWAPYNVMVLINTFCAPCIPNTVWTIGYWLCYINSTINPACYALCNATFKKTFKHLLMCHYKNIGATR

D(4) dopamine receptor = biological target: T2, D(4) dopamine receptor (Homo sapiens, UniProt P21917); experiment: DRUGMATRIX: Dopamine D4.2 radioligand binding (ligand: [3H] Spiperone); type: cell membranes, Membrane; conditions: cho-k1; Not Active = under 50% inhibition at 10 µM
T2 sequence (P21917 whole entry): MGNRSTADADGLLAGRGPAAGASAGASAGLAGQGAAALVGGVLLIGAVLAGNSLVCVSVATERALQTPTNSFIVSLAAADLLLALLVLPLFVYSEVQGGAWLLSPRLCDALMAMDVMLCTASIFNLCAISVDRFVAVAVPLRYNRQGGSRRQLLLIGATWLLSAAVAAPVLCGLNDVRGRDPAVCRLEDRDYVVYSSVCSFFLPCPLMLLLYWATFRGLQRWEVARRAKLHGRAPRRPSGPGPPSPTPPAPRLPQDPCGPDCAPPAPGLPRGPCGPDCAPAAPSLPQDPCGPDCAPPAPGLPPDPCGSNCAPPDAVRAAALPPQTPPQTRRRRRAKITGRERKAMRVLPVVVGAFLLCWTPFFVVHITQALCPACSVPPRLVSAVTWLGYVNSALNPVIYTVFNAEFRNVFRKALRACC

[3] = biological target: Matrix metalloproteinase-9 (Homo sapiens, UniProt P14780); experiment: biochemical; type: cell-based;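 further: inhibition of isolated MMP-9 enzyme activity toward a synthetic peptide substrate, from the DrugMatrix protease screening panel; in other assays of this panel Not Active means under 50% inhibition at 10 µM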
Matrix metalloproteinase-9, sequence (P14780 whole entry): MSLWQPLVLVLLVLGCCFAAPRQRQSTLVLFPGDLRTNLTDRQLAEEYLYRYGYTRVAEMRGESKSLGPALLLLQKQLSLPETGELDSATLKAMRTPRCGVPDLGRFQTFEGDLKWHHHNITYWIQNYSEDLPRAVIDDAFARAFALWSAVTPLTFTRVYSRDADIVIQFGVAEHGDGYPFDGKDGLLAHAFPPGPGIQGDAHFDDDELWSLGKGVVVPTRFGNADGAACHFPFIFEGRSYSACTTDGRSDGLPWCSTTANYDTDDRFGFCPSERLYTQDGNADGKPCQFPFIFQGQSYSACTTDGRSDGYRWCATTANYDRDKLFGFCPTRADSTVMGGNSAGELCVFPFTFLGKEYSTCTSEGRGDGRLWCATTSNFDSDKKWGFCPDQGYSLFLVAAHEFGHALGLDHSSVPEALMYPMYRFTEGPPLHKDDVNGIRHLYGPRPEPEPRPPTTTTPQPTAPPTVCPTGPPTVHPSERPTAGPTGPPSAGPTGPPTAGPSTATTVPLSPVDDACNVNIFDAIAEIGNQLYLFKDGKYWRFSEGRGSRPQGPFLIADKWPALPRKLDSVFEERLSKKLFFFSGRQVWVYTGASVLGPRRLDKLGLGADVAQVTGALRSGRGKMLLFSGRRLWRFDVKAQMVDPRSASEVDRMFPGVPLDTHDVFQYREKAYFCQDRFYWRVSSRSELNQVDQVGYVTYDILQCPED

[4] = DRUGMATRIX: Calcium Channel Type L, Benzothiazepine radioligand binding (ligand: [3H] Diltiazem); type: cell membranes, Rattus norvegicus, Wistar, Brain, Membrane; conditions: Not Active = under 50% inhibition at 10 µM
Carbonic anhydrase 2 = Carbonic anhydrase 2 (Homo sapiens, UniProt P00918); experiment: DRUGMATRIX: Carbonic Anhydrase II enzyme inhibition (substrate: 4-Nitrophenyl acetate (4-NPA)); type: tissue-based, Erythrocyte; conditions: erythrocyte; Not Active = under 50% inhibition at 10 µM

CCCC(CCC)C(=O)O [VALPROIC ACID]
Not Active: IC50 [1] | Ki [1] | IC50 [2] | IC50 (D(4) dopamine receptor) | IC50 [3] | IC50 [4] | Ki [4] | IC50 (Carbonic anhydrase 2)

CCC1=C[C@@H]2CN(C1)Cc1c([nH]c3ccccc13)[C@@](C(=O)OC)(c1cc3c(cc1OC)N(C)[C@H]1[C@@](O)(C(=O)OC)[C@H](OC(C)=O)[C@]4(CC)C=CCN5CC[C@]31[C@@H]54)C2 [VINORELBINE]
Not Active: IC50 [1] | Ki [1] | IC50 [2] | IC50 (D(4) dopamine receptor) | IC50 [3] | IC50 [4] | Ki [4] | IC50 (Carbonic anhydrase 2)

CADMIUM DICHLORIDE
Not Active: IC50 [1] | Ki [1] | IC50 [2] | Ki [2] | IC50 (D(4) dopamine receptor) | Ki (D(4) dopamine receptor) | IC50 [3] | Ki [3] | IC50 [4] | Ki [4] | IC50 (Carbonic anhydrase 2) | Ki (Carbonic anhydrase 2)
